Test results from patent publication US20240009174A1, “METHODS FOR DISRUPTING MITOCHONDRIAL UNFOLDED PROTEIN RESPONSE” (Health Research, Inc., priority 2020, published 2024).

Legend:
[1] = system: PCa cells; test: Colony forming ability of PCa cells; format: cell-based; settings: data not shown
Protocol: Identification of novel inhibitor of HSP60-ClpP interaction that disrupts UPR^mt function and induces PCa cell death. Having shown that two arms of UPR^mt, HSP60 chaperonin and ClpP protease interact and play critical role in PCa cell survival, an in silico analysis was performed and a small molecule library (developed by Enamine Ltd) was screened to identify drugs targeting the apical domain of HSP60 critical for its interaction with ClpP. 9 compounds (A-I) were identified and screened for their cell death inducing potential in PCa cells (data not shown). […] Colony forming ability of PCa cells was inhibited by DCEM1 treatment (data not shown).

[2] = system: TKO prostate tumors; test: Spontaneous prostate tumor in PTEN:Rb:p53 knockout (TKO) animals; format: in vivo, mice
Protocol: FIG. 8. Pharmacological inhibition of HSP60-ClpP inhibit oncogenic signaling and PCa tumor growth in vivo. (A) LNCaP, PC-3 and 22RV1 cells were treated with DCEM1 and analyzed for c-Myc and EZH2 protein expression after 24 hours of treatment. (B) LNCaP, 22RV1 and VCaP cells were treated with DCEM1 and analyzed for AR and PSA protein expression after 24 hours of treatment. (C-D) 22RV1 cells (1×10^6 cells) were mixed with matrigel (50:50 v/v) and injected into each flank of SCID mice and treated with DCEM1 (60 mg/kg bw) through IP route twice weekly and tumors were harvested, photographed (C) and weighed (D) at 30 days. (E) DEVDase activity were analyzed in 22RV1 xenograft tumor tissue following DCEM1 treatment and represented as fold change compared to control. (F) 22RV1 xenograft tissue were sectioned and expression of ki67, c-Myc and EZH2 proteins were analyzed by Immunohistochemistry as described in material and methods. (G-H) PC-3 cells (1×10^6 cells) were mixed with matrigel (50:50 v/v) and injected into each flank of SCID mice and treated with DCEM1 (60 mg/kg bw) through IP route twice weekly and tumors were harvested, photographed (G) and weighed (H) at 35 days. (I) DEVDase activity were analyzed in PC-3 xenograft tumor tissue following DCEM1 treatment and represented as fold change compared to control. (J) PC-3 xenograft tumor tissue were fixed and sections were used for in situ PLA to analyze HSP60-ClpP interaction in these tissue samples. (K) PBCre4:PTEN F/F: Rb F/F: p53 F/F (TKO) animals were treated with either vehicle (Normal saline: DMSO: Kolliphor HS15; 70:5:200 v/v) or DCEM1 (60 mg/kg bw in vehicle) twice weekly from 10 weeks of age. All animals were sacrificed at 16 weeks of age and whole genitourinary tract was harvested and weighed. (L) PBCre4:PTEN F/F: Rb F/F: p53 F/F (TKO) animals were treated with either vehicle (Normal saline:DMSO:Kolliphor HS15; 70:5:200 v/v) or DCEM1 (60 mg/kg bw in vehicle) twice weekly from 10 weeks of age. All animals were sacrificed at 16 weeks of age and imaged by MRI. (M) PBCre4:PTEN F/F: Rb F/F: p53 F/F (TKO) animals were treated with either vehicle (Normal saline:DMSO:Kolliphor HS15; 70:5:200 v/v) or DCEM1 (60 mg/kg bw in vehicle) twice weekly from 10 weeks of age. […] All animals were sacrificed at 16 weeks of age and prostate tissue and tumors were harvested, whole cell lysate were prepared and analyzed for HSP60 and ClpP expression (N); c-Myc and EZH2 expression (0) and SYP and CK 8/18 expression (P) by immunoblotting. […]
Ablation of HSP60-ClpP interaction by DCEM1 downregulates c-Myc, EZH2 and AR as well as inhibits tumor growth in vivo. […] The effect of DCEM1 on 22RV1 (AR positive) and PC-3 (AR negative) xenografts growth in SCID mice was analyzed. […]

[3] = system: PC-3 cells; test: Oxygen consumption rate (OCR); format: cell-based; settings: DCEM1 100 nM, 500 nM, 1 μM, 5 μM
[4] = 60 mg/kg bw twice weekly, 10 to 16 weeks of age, immunoblotting

Compound: CCOc1cc(CNCc2nc3ccccc3[nH]2)ccc1OCc1cccs1 [DCEM1]
- colony forming ability of PCa cells [1]: inhibited
- prostate tumor growth in TKO mice (GU weight, tumor volume by MRI) ([2]; 60 mg/kg bw twice weekly from 10 weeks to 16 weeks of age): significantly inhibited prostate tumor growth
- HSP60 and ClpP expression in TKO prostatic tissue [2, 4]: downregulated HSP60 and ClpP expression
- SYP and CK 8/18 expression in TKO tumor tissues [2, 4]: downregulated SYP and up regulated CK 8/18 expression
- c-Myc and EZH2 in TKO prostatic tissue [2, 4]: depletion of c-Myc and EZH2
- oxygen consumption rate (OCR) [3]: reduction in oxygen consumption rate
